Laboratory results: patent US20200339511A1, “Substituted indoline derivatives as dengue viral replication inhibitors” (priority 2016, published 2020)
Read-outs that look alike come from different tables or passages of the source.

Tests used:
in vitro = format: cell-based; conditions: African green monkey
Description: (§1) Tetravalent reverse transcriptase quantitative-PCR (RT-qPCR) assay The antiviral activity of the compounds of the invention was tested against DENV-1 strain TC974#666 (NCPV), DENV-2 strain 16681, DENV-3 strain H87 (NCPV) and DENV-4 strain H241 (NCPV) in a RT-qPCR assay. Therefore, Vero cells were infected with either DENV-1, or -2, or -3, or -4 in the presence or absence of test compounds. At day 3 post-infection, the cells were lysed and cell lysates were used to prepare cDNA of both a viral target (the 3′UTR of DENV; Table 2) and a cellular reference gene (β-actin, Table 2). Subsequently, a duplex real time PCR was performed on a Lightcycler480 instrument. The generated Cp value is inversely proportional to the amount of RNA expression of these targets. Inhibition of DENV replication by a test compound results in a shift of Cp's for the 3′UTR gene. On the other hand, if a test compound is toxic to the cells, a similar effect on β-actin expression will be observed. The comparative ΔΔCp method is used to calculate EC50, which is based on the relative gene expression of the target gene (3′UTR) normalized with the cellular housekeeping gene (β-actin). In addition, CC50 values are determined based on the Cp values acquired for the housekeeping gene β-actin.
(§2) The culture medium consisted of minimal essential medium supplemented with 2% of heat-inactivated fetal calf serum, 0.04% gentamycin (50mg/mL) and 2 mM of L-glutamine. Vero cells, obtained from ECACC, were suspended in culture medium and 75 μL/well was added in 96-well plates (10000 cells/well), which already contain the antiviral compounds. […] In addition, each plate contains wells which are assigned as virus controls (containing cells and virus in the absence of compound) and cell controls (containing cells in the absence of virus and compound). Once the cells were added in the plates, the plates were incubated in a fully humidified incubator (37° C., 5% CO2) until the next day. Dengue viruses serotype-1, 2, 3 and 4 were diluted in order to obtain a Cp of ˜22-24 in the assay. Therefore, 25 μL of virus suspension was added to all the wells containing test compound and to the wells assigned as virus control. In parallel, 25 μL of culture medium was added to the cell controls. Next, the plates were incubated for 3 days in a fully humidified incubator (37° C., 5% CO2). After 3 days, the supernatant was removed from the wells and the cells were washed twice with ice-cold PBS (˜100 μL). The cell pellets within the 96-well plates were stored at −80° C. for at least 1 day. Next, RNA was extracted using the Cells-to-CT™ lysis kit, according to the manufacturer's guideline (Life Technologies). The cell lysates can be stored at −80° C. or immediately used in the reverse transcription step.
(§3) Using the LightCycler software and an in-house LIMS system, dose response curves for each compound were calculated and the half maximal effective concentration (EC50) and the half maximal cytotoxic concentration (CC50) were determined (Tables 5-8).

DENV-2 strain 16681 = assay: Tetravalent RT-qPCR assay, serotype 2; format: cell-based, Dengue virus; conditions: Dengue virus, DENV2, Vero, 72 h, RT-qPCR serotype 2 16681, Protocol A, Vero cells, day 3
Description: as §1, §2
(§4) In preparation of the reverse transcription step, mix A (table 3A) was prepared and 7.57 μL/well was dispensed in a 96-well plate. After addition of 5 μL of the cell lysates, a five minute denaturation step at 75° C. was performed (table 3B). Afterwards, 7.43 μL of mix B was added (table 3C) and the reverse transcription step was initiated (table 3D) to generate cDNA.
(§5) Finally, a RT-qPCR mix was prepared, mix C (table 4A), and 22.02 μL/well was dispensed in 96-well LightCycler qPCR plates to which 3μL of cDNA was added and the qPCR was performed according to the conditions in table 4B on a LightCycler 480.
as §3

DENV-4 strain H241 = assay: Tetravalent RT-qPCR assay, serotype 4; format: cell-based, Dengue virus; conditions: Dengue virus, DENV4, Vero, 72 h, RT-qPCR serotype 4 H241, Protocol A, Vero cells, day 3
Description: as §1, §2, §4, §5, §3

Vero cells = conditions: African green monkey
DENV-3 strain H87 = assay: Tetravalent RT-qPCR assay, serotype 3; format: cell-based, Dengue virus; conditions: Dengue virus, DENV3, Vero, 72 h, RT-qPCR serotype 3 H87, Protocol A, Vero cells, day 3
Description: as §1, §2, §4, §5, §3

DENV-2 16681 strain = assay: DENV-2 antiviral assay (eGFP-labeled virus in Vero cells); format: cell-based, Dengue virus; conditions: DENV-2 16681 eGFP, MOI 0.5, 3 days
DENV-1 strain TC974#666 = assay: Tetravalent RT-qPCR assay, serotype 1; format: cell-based, Dengue virus; conditions: Dengue virus, DENV1, Vero, 72 h, RT-qPCR serotype 1 TC974#666, Protocol A, Vero cells, day 3
Description: as §1, §2, §4, §5, §3

DENV-2 = conditions: analogous DENV-2 antiviral assay, reported activity; cited from earlier work

Row | Structure (SMILES) | CC50 at 3 days (in vitro) [nM] | EC50 (DENV-2 strain 16681) [nM] | EC50 (DENV-4 strain H241; read-out: EC50) [nM] | CC50 (Vero cells) [nM] | EC50 (DENV-3 strain H87) [nM] | EC50 (DENV-2 16681 strain) [nM] | EC50 (DENV-1 strain TC974#666) [nM] | EC50 (DENV-4 strain H241) [nM] | EC50 (DENV-2) [nM]
1 | COc1cc(NC(C(=O)N2CCc3cc(OC)c(C(F)(F)F)cc32)c2ccc(Cl)cc2)cc(OCCO)c1 (single isomer, unassigned) [Compound 7B, 2-(4-chlorophenyl)-2-((3-(2-hydroxyethoxy)-5-methoxyphenyl)amino)-1-(5-methoxy-6-(trifluoromethyl)indolin-1-yl)ethanone] | 4100 | 0.96 | 120 | 12000 | 30 | 1 | 5.1 | – | –
2 | COc1cc(NC(C(=O)N2CCc3cc(OC)c(OC(F)(F)F)cc32)c2ccc(Cl)cc2)cc(OCCO)c1 (single isomer, unassigned) [Compound 13A, 2-(4-chlorophenyl)-2-((3-(2-hydroxyethoxy)-5-methoxyphenyl)amino)-1-(5-methoxy-6-(trifluoromethoxy)indolin-1-yl)ethanone] | > 2500 | 1.5 | – | 12000 | 43 | 3.5 | 6.3 | 270 | –
3 | COc1cccc(NC(C(=O)N2CCc3ccccc32)c2ccccc2)c1 (stereo not shown) [(56) of WO-2013/045516] | – | – | – | – | – | – | – | – | 450
4 | CNC(=O)c1cccc(NC(C(=O)c2c[nH]c3ccccc23)c2ccccc2)c1 (stereo not shown) [(170) of WO-2013/045516] | – | – | – | – | – | – | – | – | 440
